The target in assay [1] is rTRPA1 (Rattus norvegicus, UniProt Q6RI86). In words: Whole-cell patch clamp inhibition of rTRPA1. The following applies: rTRPA1, 10 micromolar AITC activation; read-out: IC50 Inward current. The assay is classed as cell-based. The protocol:
(§1) Data for TRPA1 inhibition and the selectivity of TRPA1 inhibition was obtained by this method for the compound of Formula (Ia) and included in Table 1 and Table 2. All currents were recorded in whole-cell configuration using EPC-9 and EPC-10 amplifiers and Patchmaster software (HEKA). […] The standard pipette solution consisted of 140 mM CsAsp, 10 mM EGTA, 10 mM HEPES, 2.27 mM MgCl2, 1.91 mM CaCl2, 4 mM MgATP, and 0.1-0.3 mM Na2GTP, with pH adjusted to 7.2 with CsOH. In addition, a solution containing 145 mM CsCl, 10 mM HEPES, 10 mM EGTA and 1 mM MgCl2 (pH 7.2 adjusted with CsOH) can be used. The standard bath solution contained 150 mM NaCl, 10 mM HEPES, 10 mM glucose, 4.5 mM KCl, 1 mM EGTA, 3 mM MgCl2, with pH adjusted to 7.4 with NaOH. In some instances, 2 mM CaCl2 was added in place of EGTA and the concentration of MgCl2 was reduced to 1 mM.
(§2) Data were collected either by continuous recordings at −60 mV or by applying voltage ramps from a holding potential of 0 mV every 4 s. […] Inward and outward currents were analyzed from the ramps at −80 and 80 mV, respectively. […]
(§3) Solutions were switched using a gravity-fed continuous focal perfusion system. […] Temperatures were confirmed using a thermistor (Warner Instruments, TA-29), with temperatures at the recorded cell estimated to be within +/−2° C. of those reported. […]
Background: The patch-clamp technique gives a direct electrical read-out from membranes.

Assay [2] concerns the target T1, hTRPV3 (Homo sapiens, UniProt Q8NET8).
T1 sequence (Q8NET8 1-790): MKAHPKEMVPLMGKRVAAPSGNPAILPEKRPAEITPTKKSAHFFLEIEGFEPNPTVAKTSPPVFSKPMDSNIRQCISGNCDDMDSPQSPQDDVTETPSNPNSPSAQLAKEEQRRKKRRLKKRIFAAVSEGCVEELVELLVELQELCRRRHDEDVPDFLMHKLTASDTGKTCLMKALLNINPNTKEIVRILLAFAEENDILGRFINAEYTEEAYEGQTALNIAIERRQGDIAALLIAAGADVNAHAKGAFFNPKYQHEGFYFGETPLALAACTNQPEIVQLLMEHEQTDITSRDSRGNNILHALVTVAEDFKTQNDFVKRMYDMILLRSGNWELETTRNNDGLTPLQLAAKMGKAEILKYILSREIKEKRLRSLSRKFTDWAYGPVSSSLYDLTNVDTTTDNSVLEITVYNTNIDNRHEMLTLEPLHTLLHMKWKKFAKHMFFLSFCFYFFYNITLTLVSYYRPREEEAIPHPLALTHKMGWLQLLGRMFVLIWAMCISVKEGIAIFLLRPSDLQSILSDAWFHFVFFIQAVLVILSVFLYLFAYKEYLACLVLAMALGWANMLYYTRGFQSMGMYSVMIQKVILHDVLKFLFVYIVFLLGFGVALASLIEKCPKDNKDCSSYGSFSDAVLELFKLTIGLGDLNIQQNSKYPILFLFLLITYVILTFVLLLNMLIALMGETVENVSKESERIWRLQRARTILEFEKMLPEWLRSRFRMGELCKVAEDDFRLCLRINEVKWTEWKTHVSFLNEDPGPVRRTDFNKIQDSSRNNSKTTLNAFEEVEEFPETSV
As to the kind of experiment: Patch clamp selectivity, hTRPV3. The assay is classed as cell-based. The following applies: hTRPV3 vs TRPA1. The protocol: as §1, §2, §3

Assay [3] concerns the target hTRPM8 (Homo sapiens, UniProt Q7Z2W7). As to the kind of experiment: Patch clamp selectivity, hTRPM8. The format is cell-based. The following applies: hTRPM8 vs TRPA1. The protocol:
as §1, §2, §3

The target of assay [4] is hNav1.2 (Homo sapiens, UniProt Q99250). In words: Patch clamp selectivity, hNav1.2. As to conditions: hNav1.2 vs TRPA1. The assay is classed as cell-based. The protocol:
as §1, §2, §3

For assay [5], the system named is formalin-induced pain behavior. As to the kind of experiment: Formalin-induced pain behavior in vivo rodent model. The arrangement: species or system rat. The following applies: i.p. administration, in words. From the text: The data shown in Tables 3a, 3b, and 3c and FIG. 2 were obtained by administering a pharmaceutical composition comprising the compound of Formula (Ia) to rodents in the formalin-induced pain duration at various doses according to Example 5. Specifically, the data in Tables 3a, 3b, and 3c and FIG. 2 were obtained by intraperitoneal (i.p.) administration of compositions containing different concentrations of the compound of Formula (Ia), a comparator composition containing recited amounts of the comparator compound (e.g., 150 mg/kg of the comparator compound of Formula (II) in Table 3a) and a control composition containing the vehicle (e.g., without the compound of Formula (Ia) or a comparator compound).
The compound of Formula (Ia) and the comparator compounds of Formula (II) and Formula (III) were tested in the formalin-induced pain test reported by Dubuisson et al., Pain 1977 December; 4(2):161-74 (incorporated herein by reference in its entirety). Dubuisson et al. (1977) describe a method for assessing pain and analgesia in rats and cats. Briefly, dilute formalin (50 μL of 3% formalin) is injected into the plantar surface of the hind paw. […] The individual responsible for counting the pain behaviors in a particular study is blinded to the treatment groups.
Rats were treated with the HCl salt of Compound (Ia) at various doses (3, 10, 30, and 50 mg/kg, IP) or with the vehicle (IP).

The IC50 is the concentration that gives 50% inhibition.

Sequence of hNav1.2 (Q99250 whole entry): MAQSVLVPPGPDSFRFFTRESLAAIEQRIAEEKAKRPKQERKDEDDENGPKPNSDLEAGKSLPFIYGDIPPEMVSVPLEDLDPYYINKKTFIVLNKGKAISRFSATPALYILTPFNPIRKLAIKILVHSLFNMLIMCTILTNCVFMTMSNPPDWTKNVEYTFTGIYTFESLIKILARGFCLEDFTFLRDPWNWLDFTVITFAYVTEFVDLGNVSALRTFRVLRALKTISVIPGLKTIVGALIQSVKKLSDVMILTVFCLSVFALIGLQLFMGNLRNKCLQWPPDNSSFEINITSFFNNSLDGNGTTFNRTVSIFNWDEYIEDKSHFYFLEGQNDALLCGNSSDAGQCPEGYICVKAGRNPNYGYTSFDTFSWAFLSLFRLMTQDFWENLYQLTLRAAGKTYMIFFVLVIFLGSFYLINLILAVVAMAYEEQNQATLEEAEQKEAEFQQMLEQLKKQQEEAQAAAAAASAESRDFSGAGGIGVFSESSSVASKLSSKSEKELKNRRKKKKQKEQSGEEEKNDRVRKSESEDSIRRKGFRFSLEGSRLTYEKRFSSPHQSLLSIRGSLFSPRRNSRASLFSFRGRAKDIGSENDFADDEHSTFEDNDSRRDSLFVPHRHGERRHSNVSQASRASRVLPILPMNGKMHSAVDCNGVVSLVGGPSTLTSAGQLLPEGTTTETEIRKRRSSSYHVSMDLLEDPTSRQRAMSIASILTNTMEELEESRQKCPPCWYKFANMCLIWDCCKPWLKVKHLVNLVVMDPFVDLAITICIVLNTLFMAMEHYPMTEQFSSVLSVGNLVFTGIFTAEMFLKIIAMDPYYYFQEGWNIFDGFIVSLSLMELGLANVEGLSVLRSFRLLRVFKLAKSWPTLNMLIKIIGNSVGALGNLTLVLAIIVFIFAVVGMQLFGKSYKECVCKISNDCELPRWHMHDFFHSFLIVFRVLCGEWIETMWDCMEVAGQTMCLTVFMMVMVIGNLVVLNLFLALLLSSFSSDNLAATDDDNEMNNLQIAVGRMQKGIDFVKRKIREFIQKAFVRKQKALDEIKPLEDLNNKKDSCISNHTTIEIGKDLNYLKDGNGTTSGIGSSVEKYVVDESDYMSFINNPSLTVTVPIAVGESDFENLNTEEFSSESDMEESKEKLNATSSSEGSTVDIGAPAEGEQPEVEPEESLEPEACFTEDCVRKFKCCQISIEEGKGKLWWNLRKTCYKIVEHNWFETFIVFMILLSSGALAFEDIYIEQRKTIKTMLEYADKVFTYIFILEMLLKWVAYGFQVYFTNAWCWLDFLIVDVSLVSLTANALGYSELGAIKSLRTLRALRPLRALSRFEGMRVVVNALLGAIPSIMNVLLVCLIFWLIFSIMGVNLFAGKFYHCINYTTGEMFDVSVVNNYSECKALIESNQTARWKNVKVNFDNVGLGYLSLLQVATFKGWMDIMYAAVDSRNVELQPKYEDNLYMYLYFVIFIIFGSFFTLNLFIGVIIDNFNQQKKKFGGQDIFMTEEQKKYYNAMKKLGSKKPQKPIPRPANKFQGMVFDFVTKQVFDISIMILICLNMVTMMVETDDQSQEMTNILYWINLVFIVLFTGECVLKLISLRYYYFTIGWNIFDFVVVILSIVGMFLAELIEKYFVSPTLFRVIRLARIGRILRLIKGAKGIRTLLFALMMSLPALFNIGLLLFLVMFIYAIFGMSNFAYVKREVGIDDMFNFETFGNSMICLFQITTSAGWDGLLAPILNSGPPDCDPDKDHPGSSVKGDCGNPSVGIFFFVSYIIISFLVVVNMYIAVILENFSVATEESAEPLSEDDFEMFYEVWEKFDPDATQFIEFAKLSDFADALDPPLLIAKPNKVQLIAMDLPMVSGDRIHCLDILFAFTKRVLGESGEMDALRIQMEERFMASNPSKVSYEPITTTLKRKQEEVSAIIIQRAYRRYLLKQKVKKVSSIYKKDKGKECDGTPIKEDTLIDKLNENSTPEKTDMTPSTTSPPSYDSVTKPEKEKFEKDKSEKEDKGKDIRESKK
Sequence of hTRPM8 (Q7Z2W7 whole entry): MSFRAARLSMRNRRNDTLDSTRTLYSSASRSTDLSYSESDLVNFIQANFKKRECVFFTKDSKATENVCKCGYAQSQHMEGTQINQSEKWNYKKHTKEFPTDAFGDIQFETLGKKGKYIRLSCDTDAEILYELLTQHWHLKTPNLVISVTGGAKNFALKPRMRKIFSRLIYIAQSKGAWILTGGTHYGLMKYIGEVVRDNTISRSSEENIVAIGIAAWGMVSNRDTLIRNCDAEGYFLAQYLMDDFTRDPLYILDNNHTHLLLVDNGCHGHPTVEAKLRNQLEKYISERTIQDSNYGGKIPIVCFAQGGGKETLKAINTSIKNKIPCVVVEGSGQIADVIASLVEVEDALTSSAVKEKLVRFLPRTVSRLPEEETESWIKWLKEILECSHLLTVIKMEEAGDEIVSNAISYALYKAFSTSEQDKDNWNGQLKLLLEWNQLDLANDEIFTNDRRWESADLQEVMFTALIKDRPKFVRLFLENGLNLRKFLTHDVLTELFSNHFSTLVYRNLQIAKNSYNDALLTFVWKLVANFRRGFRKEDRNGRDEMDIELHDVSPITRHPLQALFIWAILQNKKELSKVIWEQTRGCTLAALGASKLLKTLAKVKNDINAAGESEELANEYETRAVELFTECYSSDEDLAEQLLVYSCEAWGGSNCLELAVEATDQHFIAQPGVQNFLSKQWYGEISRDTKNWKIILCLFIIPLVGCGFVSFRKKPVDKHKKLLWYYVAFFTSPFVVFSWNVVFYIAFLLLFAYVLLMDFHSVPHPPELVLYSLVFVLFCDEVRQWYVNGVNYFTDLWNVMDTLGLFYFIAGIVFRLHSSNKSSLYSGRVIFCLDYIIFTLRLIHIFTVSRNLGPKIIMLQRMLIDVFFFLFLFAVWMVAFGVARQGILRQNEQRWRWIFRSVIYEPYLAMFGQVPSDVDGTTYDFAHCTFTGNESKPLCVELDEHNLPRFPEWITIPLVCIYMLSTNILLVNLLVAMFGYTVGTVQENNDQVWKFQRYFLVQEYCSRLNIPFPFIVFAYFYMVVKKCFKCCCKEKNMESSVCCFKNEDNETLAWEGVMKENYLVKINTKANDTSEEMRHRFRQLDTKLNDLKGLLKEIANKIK
Sequence of rTRPA1 (Q6RI86 whole entry): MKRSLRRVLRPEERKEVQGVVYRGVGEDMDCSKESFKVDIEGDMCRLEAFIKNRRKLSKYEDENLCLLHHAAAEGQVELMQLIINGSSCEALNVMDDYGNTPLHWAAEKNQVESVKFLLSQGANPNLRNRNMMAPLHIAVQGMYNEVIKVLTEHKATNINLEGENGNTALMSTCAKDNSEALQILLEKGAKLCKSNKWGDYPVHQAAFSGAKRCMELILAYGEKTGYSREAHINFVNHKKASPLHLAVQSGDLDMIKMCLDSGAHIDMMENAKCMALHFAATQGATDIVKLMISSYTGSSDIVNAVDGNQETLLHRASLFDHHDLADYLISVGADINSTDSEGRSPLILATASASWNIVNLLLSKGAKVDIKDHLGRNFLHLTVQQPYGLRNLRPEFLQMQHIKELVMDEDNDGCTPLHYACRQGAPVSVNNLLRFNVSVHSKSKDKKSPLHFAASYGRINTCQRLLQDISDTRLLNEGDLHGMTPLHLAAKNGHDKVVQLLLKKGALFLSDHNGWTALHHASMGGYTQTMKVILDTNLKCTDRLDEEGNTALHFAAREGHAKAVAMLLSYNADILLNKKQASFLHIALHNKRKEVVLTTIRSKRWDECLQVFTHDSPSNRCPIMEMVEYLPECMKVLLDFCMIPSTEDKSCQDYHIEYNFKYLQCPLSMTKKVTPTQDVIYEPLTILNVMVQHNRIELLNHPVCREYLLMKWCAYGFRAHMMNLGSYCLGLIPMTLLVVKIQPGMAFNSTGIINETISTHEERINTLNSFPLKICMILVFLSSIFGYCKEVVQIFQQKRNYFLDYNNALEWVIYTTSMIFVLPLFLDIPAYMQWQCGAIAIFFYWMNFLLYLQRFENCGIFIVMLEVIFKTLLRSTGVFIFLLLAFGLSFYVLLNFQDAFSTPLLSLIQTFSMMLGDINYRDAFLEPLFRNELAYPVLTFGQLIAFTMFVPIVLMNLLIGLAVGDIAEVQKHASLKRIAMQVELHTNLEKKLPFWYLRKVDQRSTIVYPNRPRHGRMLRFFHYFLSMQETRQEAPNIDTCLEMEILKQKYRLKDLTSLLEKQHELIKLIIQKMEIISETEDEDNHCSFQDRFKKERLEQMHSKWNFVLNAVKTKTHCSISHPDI

Consider `C[C@H]1CCCN1c1ncc(-c2cccc(NC(=O)Cn3cnc4c3c(=O)n(C)c(=O)n4C)n2)cn1` [Formula (Ia)], for which, in assay [1], the IC50 was roughly 0.1 µM. The “Fold Selectivity Compared to TRPA1” value in assay [2] is listed as greater than 300 Fold; in assay [3], roughly 200 Fold; in assay [4], greater than 100 Fold. The “duration of pain behavior compared with vehicle” value in assay [5] is on record as “shorter durations of pain behavior than those treated with the vehicle”.

The values above are taken from US9193729B2, “Inhibiting transient receptor potential ion channel TRPA1” (Cubist Pharmaceuticals, Inc., priority 2011, dated 2015).
